Patent US4497803A, “Inclusion compound of lankacidin-group antibiotic and use thereof” (priority 1982, dated 1985)
Converted amounts (≈) assume the structure as drawn. Read-outs that look alike come from different tables or passages of the source.

What was measured:
[1] = Solubility of lankacidin-group in β-CD solution (10^-2 Mol/l), shaken 30 minutes to one hour (Example 4); type: physicochemical
Procedure: (§1) Powdery lankacidin C was added to an aqueous solution of cyclodextrin (hereinafter referred to as "CD") to have 4 mg/ml of the lankacidin C contained. After the mixture was stirred with a mixer, it was shaken at 5° C. for 2 hours, and passed through filter paper. The absorbancy of the filtrate was measured at 227-229 nm to determine concentration of the lankacidin C.
The solubility of lankacidin-group in a solution of β-CD (10^-2 Mol/l) were measured in the same manner as that of Example 1 except that the shaking was continued for 30 minutes to one hour.

[2] = tested on: St. aureus 209P; assay: Stability of inclusion compound of lankacidin-group (24° C., for 6 days): antibacterial activity by paper disk assay; type: cell-based; conditions: methanol, 100 μg/ml
Procedure: The inclusion compound of the present invention is stable in an aqueous solution, although it splits into lankacidin-group moiety and cyclodextrins moiety, when it is in the form of solution or powder, by contacting it with organic solvents (e.g., ethyl acetate, methyl isobutyl ketone) or various carriers (e.g., silica gel, high-porous resins). […] In comparing the antibacterial activity, concentrations of the inclusion compound are calculated in terms of lankacidin-group compound from which the inclusion compound is prepared.
Stability of inclusion compound of lankacidin-group
*1 Paper disk assay using Trypticase soy agar (Baltimore Biologicals Ltd.
U.S.A.) as test culture media.
*2 1000 μg/ml, Lankacidingroup is stable in methanol.
*3 Aqueous solution of the inclusion compound with cyclodextrin (1000
μg/ml calculated in terms of lankacidingroup)

[3] = Solubility of inclusion compound in water; type: physicochemical
Procedure: The lankacidin-group is added to each of solutions containing various amounts of cyclodextrin. The minimum concentration of cyclodextrin which dissolves the maximum amount of the lankacidin-group compound and practical concentrations thereof are determined on the basis of amounts of the lankacidin-group compound dissolved in the cyclodextrin solutions. Then, the molar ratio of cyclodextrin to lankacidin-group compound is calculated by the following equation:
Molar ratio=[Molarity of cyclodextrin]:[(Saturation molarity of lankacidin-group compound in a certain concentration of cyclodextrin-solution)-(saturation molarity of lankacidin-group compound in an aqueous solution)].
Moreover, a large amount of the present inclusion compound is dissolved in water and it is kept stably therein. Solubility of the inclusion compound in water is greater than that of landacidin-group compounds in water, when the amount of the inclusion compound dissolved is calculated in terms of lankacidin-group compound, and than saturation concentration of cyclodextrin in water so far as cyclodextrin contained in the inclusion compound is concerned (Table 2).
(1) Solubility of lankacidingroup in water.
(2) Solubility of lankacidingroup in M/100 cyclodextrin solution.
(3) Concentration of cyclodextrin of (2).
(4) Solubility (maximum) of the present inclusion compound (calculated in
terms of lankacidingroup contained) in water.
(5) Concentration of cyclodextrin contained in the inclusion compound of […]

[4] = Solubility of lankacidin C in aqueous cyclodextrin solution, shaken at 5° C. for 2 hours (Example 1); type: physicochemical
Procedure: as §1

[5] = Solubility in β-CD solution, shaken 16 hours (Example 3); type: physicochemical
Procedure: as §1
The solubilities of lankacidin A, lankacidin C and lankacidinol in a β-CD solution were measured in the same manner as that of Example 1 except that the shaking was continued for 16 hours.

[6] = Stability of lankacidin A and C in methanolic aqueous solutions, 40° C., HPLC (Example 7); type: physicochemical; conditions: for Residual rate / remaining at 6 h: 10 μg/ml, pH 7.0, 40° C.; for Residual rate: 0 hr; for remaining at 6 h: read-out: Residual rate
Procedure: 5 ml each of a methanolic solution containing lankacidin A or C in a concentration of 100 μg per ml was added to 45 ml each of pH 4.5 and pH 7.0 buffer solutions and a buffer solution containing β-cyclodextrin.
Each mixture was placed in a glass vessel, and then sealed. While the mixtures were kept in the vessel at 40° C., 5 ml each was taken out from time to time and extracted with ethyl acetate. The organic layers were dried over anhydrous sodium sulfate and the concentrations of the lankacidin A or C was measured with high-performance liquid chromatography (HPLC).
Apparatus: Water Associates ALC/GPC 240 (Waters Associates Inc., U.S.A.)
Column: μPoracil 30 cm×3.9 mm.phi.
Eluent: n-Hexane: isopropyl alcohol: acetic acid (75:25:0.2).

[7] = aqueous β-cyclodextrin solution, β-CD 10^-2 Mol/l, read-out: Solubility
[8] = β-CD 0 Mol/l (water), read-out: Solubility
[9] = aqueous β-cd solution, β-CD 10^-2 Mol/l
[10] = aqueous β-cd solution, β-CD 10^-3 Mol/l
[11] = aqueous β-cd solution, β-CD 10^-4 Mol/l

For `CCCC(=O)OC1C=CC(C)=CCC(O)C=CC(C)=CC(NC(=O)C(C)=O)C2(C)C(=O)OC(C1)C(C)C2=O` (stereo not drawn) [Lankacidin C 14-butylate], the solubility [1, 7] was 118 µg/mL (≈ 223 µM), the solubility [1, 8] was 17 µg/mL (≈ 32.1 µM) and the “ratio: Solubility in a 10^-2 Mol/l solution of CD/solubility in water” value (shortened to “ratio: Solubility”) ([1]; β-CD 10^-2 Mol/l vs water) was 6.94.
With `CC(=O)OC1C=CC(C)=CC(NC(=O)C(C)O)C2(C)C(=O)OC(CC(OC(C)=O)C=CC(C)=CC1)C(C)C2=O` (stereo not drawn) [Lankacidinol 8,14-diacetate] the solubility [1, 7] was 1780 µg/mL (≈ 3260 µM), the solubility [1, 8] was 440 µg/mL (≈ 806 µM) and the “ratio: Solubility” value ([1]; β-CD 10^-2 Mol/l vs water) was 4.05.
With `CC(=O)OC1C=CC(C)=CCC(O)C=CC(C)=CC(NC(=O)C(C)O)C2(C)C(=O)OC(C1)C(C)C2=O` (stereo not drawn) [Lankacidinol A, lankacidinol A] the solubility [1, 7] was 3070 µg/mL (≈ 6100 µM), the solubility [1, 8] was 170 µg/mL (≈ 338 µM) and the “ratio: Solubility” value ([1]; β-CD 10^-2 Mol/l vs water) was 18.1.
With `CC1=CCC(O)C=CC(C)=CC(NC(=O)C(C)O)C(C)C(=O)C(C)=CCC(O)C=C1` (stereo not drawn) [Lankacyclinol, lankacyclinol] the “ratio: Solubility” value [1] was 4.38, the solubility ([1]; aqueous β-cyclodextrin solution) was 3610 µg/mL (≈ 8650 µM) and the solubility ([1]; water) was 824 µg/mL (≈ 1970 µM).
In the case of `CC(=O)C(=O)NC1C=C(C)C=CC(O)CC=C(C)C=CC(O)CC2OC(=O)C1(C)C(=O)C2C` (stereo not drawn) [Lankacidin C, lankacidin C], the “Antibacterial activity, inhibition diameter” value ([2]; 0 day) is reported as 28.25 mm, the “Antibacterial activity, inhibition diameter” value ([2]; 3 days at 24° C.) is reported as 29.5 mm and the “Antibacterial activity, inhibition diameter” value ([2]; 6 days at 24° C.) is reported as 29.5 mm. It also gave a solubility ([3]; m/100 cyclodextrin solution, M/100 cyclodextrin, (3) cyclodextrin 11.3 mg/ml, read-out: (2) Solubility of lankacidin-group in M/100 cyclodextrin solution) of 3540 µg/mL (≈ 7700 µM), a solubility ([3]; water, read-out: (1) Solubility of lankacidin-group in water) of 268 µg/mL (≈ 583 µM) and a solubility at 2 h [4, 9] of 3730 µg/mL (≈ 8120 µM). It also gave a solubility at 2 h [4, 10] of 650 µg/mL (≈ 1410 µM), a solubility at 2 h [4, 11] of 280 µg/mL (≈ 609 µM) and a solubility at 2 h ([4]; aqueous γ-cd solution, γ-CD 10^-2 Mol/l) of 2390 µg/mL (≈ 5200 µM). The solubility at 2 h ([4]; aqueous γ-cd solution, γ-CD 10^-3 Mol/l) was 460 µg/mL (≈ 1000 µM), the solubility at 2 h ([4]; aqueous γ-cd solution, γ-CD 10^-4 Mol/l) was 260 µg/mL (≈ 566 µM) and the solubility at 2 h ([4]; aqueous γ-cyclodextrin solution, γ-CD 10^-1 Mol/l) was 3790 µg/mL (≈ 8250 µM). For the same compound, the solubility at 2 h ([4]; water, β-CD, CD 0 Mol/l) was 260 µg/mL (≈ 566 µM), the solubility at 2 h ([4]; water, γ-CD, CD 0 Mol/l) was 260 µg/mL (≈ 566 µM) and the “Solubility in CD solution” value ([4]; β-CD and γ-CD solution) was “high solubility”. For the same compound, the solubility at 16 h ([5]; aqueous β-cd solution, β-CD 2 × 10^-3 Mol/l) was 934 µg/mL (≈ 2030 µM), the solubility at 16 h ([5]; aqueous β-cd solution, β-CD 2 × 10^-4 Mol/l) was 304 µg/mL (≈ 662 µM) and the solubility at 16 h ([5]; aqueous β-cd solution, β-CD 5 × 10^-3 Mol/l) was 1780 µg/mL (≈ 3870 µM). The solubility at 16 h ([5]; aqueous β-cd solution, β-CD 5 × 10^-4 Mol/l) was 409 µg/mL (≈ 890 µM), the solubility at 16 h [5, 9] was 3350 µg/mL (≈ 7290 µM) and the solubility at 16 h [5, 10] was 566 µg/mL (≈ 1230 µM). For the same compound, the solubility at 16 h [5, 11] was 262 µg/mL (≈ 570 µM), the “Solubility in β-CD solution as function of β-CD concentration” value ([5]; from the vicinity of 10^-3 Mol/l of β-CD) was “increase in proportion to the concentration of β-CD” and the solubility at 16 h ([5]; water, β-CD 0 Mol/l) was 237 µg/mL (≈ 516 µM). The solubility ([5]; β-CD 10^-3 Mol/l, 960 min) was 715 µg/mL (≈ 1560 µM), the Residual rate ([6]; no β-cyclodextrin) was 100% and the Residual rate ([6]; β-cyclodextrin 10 mg/ml) was 100%. The “Effect of β-cyclodextrin on stability in methanolic aqueous solutions” value ([6]; 1000 times β-CD by weight added) was “increased stabilities”, the remaining at 6 h ([6]; methanolic aqueous buffer, no β-cyclodextrin) was 43.7% and the remaining at 6 h ([6]; methanolic buffer with β-cyclodextrin, β-cyclodextrin 10 mg/ml) was 88.2%.
For `CC(=O)OC1C=CC(C)=CC(NC(=O)C(C)=O)C2(C)C(=O)OC(CC(O)C=CC(C)=CC1)C(C)C2=O` (stereo not drawn) [Lankacidin C 8-acetate, lankacidin C 8-acetate], the solubility [1, 7] was 2770 µg/mL (≈ 5520 µM), the solubility [1, 8] was 74.3 µg/mL (≈ 148 µM) and the “ratio: Solubility” value ([1]; β-CD 10^-2 Mol/l vs water) was 37.3.
In the case of Iso-lankacidinol, the solubility ([1]; β-CD 0 Mol/l (water)) is reported as 796 µg/mL, the solubility ([1]; β-CD 10^-2 Mol/l) is reported as 3200 µg/mL and the “ratio: Solubility” value ([1]; β-CD 10^-2 Mol/l vs water) is reported as 4.02.
